# According to patent US20260262656A1, “COMPOSITION AND METHOD FOR PROMOTING COLONIZATION OF ARBUSCULAR MYCORRHIZAL FUNGI” (National University Corporation Tottori University, priority 2022, published 2026):
# Assays:
# [1] = test system: Arbuscular mycorrhizal fungus Rhizophagus irregularis DAOM197198; assay: Hyphal branching of AM fungus cultured on gel media; assay type: cell-based; settings: for hyphal branching activity compared with positive control GR24: GR24 at 100 nM, FIG. 1 and FIG. 2; for activity for promoting hyphal branching (hyphal branch number per spore): concentration range tested 1 to 100 nM, 7-10 days; for activity for promoting hyphal branching (hyphal branch number per spore) / hyphal branch numbers compared to the negative control: Steel test; for hyphal branch numbers compared to the negative control: FIG. 2
# Method: • Arbuscular mycorrhizal fungus Rhizophagus irregularis DAOM197198 (Premier Tech Biotechnologies)
# The spores of the AM fungi were separated and cultured on gels according to the conventional procedures outlined below.
# 1. In a 50 mL centrifuge tube, Gastrografin aqueous solutions having different densities were gently layered in the order of 50% (10 mL), 32% (5 mL), 16% (5 mL), and 8% (5 mL), and finally 5 mL of a spore suspension of R. irregularis (hereinafter called the AM fungus) was loaded, and centrifugation was performed at 500 g for 10 minutes.
# 2. The spores separated in the density gradient from the above were collected on a cell strainer and washed with sterilized water 3 times.
# 3. The spores were suspended in sterilized water at 4000 spores/mL.
# 4. A 4 μL drop (about 8 spores) each of the spore suspension diluted to 2000 spores/mL was put in the center portion of the M medium (New Phytol. 108:211-218), which had been dispensed in a 24-well plate at 350 μL each.
# 5. After it was left for 5 minutes to allow excess moisture to evaporate, 200 μL each of 0.3% Phytagel (3 mM MgSO4) at a temperature of about 50° C. was gently poured over the spores. Three to four wells were prepared per treatment group.
# 6. They were cultured in the dark for 5 days at 25° C. to let the spores germinate in advance.
# 1. rac-GR24 (hereinafter denoted as GR24), a synthetic strigolactone known to have a hyphal branching activity for the AM fungi, was used as a positive control. From the GR24 stored in acetone, the solvent was removed in vacuo, and GR24 was resuspended in distilled water and sterilized with a 0.45 μm filter.
# 2. For the other test substances, dry solids were dissolved in distilled water and filter-sterilized as above.
# 3. 200 μL each of the test solutions was added dropwise onto the Phytagel media comprising the germinated spores obtained in (2) above. The AM fungi were treated using sterilized water as a negative (Mock) control and with GR24 at a final concentration of 100 nM as a positive control.
# 4. Culturing was performed in the dark for 7-10 days at 25° C.
# 5. Hyphal branching numbers were measured under a stereomicroscope.
# The hyphae that extended and branched directly from the hyphal stem had complex structures and branched well irrespective of the treatment conditions, and therefore they were excluded from the measurements of hyphal branching numbers. […]
# [2] = test system: AM fungi colonizing lisianthus (Eustoma grandiflorum cv. Pink Thumb) root; assay: AM fungal colonization of host plant root in plant box: lisianthus; assay type: in vivo; set-up: AM fungal colonization rates compared with positive control gibberellin (GA): dose or concentration left out as unconfirmed; settings: for root colonization events compared to the mock treatment: 4 weeks
# Method: (§1) To confirm that the identified active compounds not only promote hyphal branching of the AM fungi but also actually lead to increases of colonization and symbiosis with diverse plants, tests were carried out using lisianthus (Eustoma grandiflorum cv. Pink Thumb), tomato (Solanum lycopersicum L. cv. Sugar Lump), and chive (Allium schoenoprasum) as host plants.
# Culturing of the host plants and AM fungal colonization and treatments with the active compounds were performed according to the following procedures.
# (1) Plant box was assembled in 3 tiers: the top tier served as a lid having openings for ventilation, the middle tier was a box to which the culture soil (300 mL river sand) had been added, and the bottom tier was an empty box.
# (2) The plant box of (1) above was sterilized by autoclaving (121° C., 20 minutes).
# (3) To the culture soil of the middle box, 1000 spores of the AM fungi and 50 mL of the Hoagland hydroponic solution at a 1/10 concentration were added, and stirred with forceps. The active compounds such as GPS were added to the Hoagland hydroponic solution to treat the AM fungi and host plants.
# (4) In order to prevent drying of the culture soil, 50 mL of the Hoagland hydroponic solution at a 1/10 concentration was also added to the bottom box. A twisted piece of KimWipe was placed through a hole provided at the bottom of the middle box, with the lower tip of the Kim Wipe soaked into the solution in the bottom box, and therefore the culture soil was maintained without becoming dry.
# (5) Six seedlings of each host plant were planted per plant box, and cultured for 4 weeks in a culture chamber set at 24° C. and 14 hour light cycle.
# (6) After completing the culturing period above, the root of each host plant was sampled and preserved in an FAA fixative solution.
# Colonization rates of the AM fungi were measured according to the following procedures.
# (1) The root fixed in said fixative solution was cut into 1 cm fragments and immersed in a 10% KOH aqueous solution, and heated at 90° C. for 15 minutes. […]
# (§2) (4) Using a light microscope having an ocular lens fitted with an ocular micrometer, the stage was moved perpendicular to the root (in the Y-axis direction), and when the crosshair of the ocular micrometer touched the root, presence or absence of AM fungal hyphae in the root within the field of view was examined. The rate of hyphal invasion, i.e. colonization rate, as a total was calculated according to the following formula. […]
# (§3) The rate of arbuscule formation was calculated according to the above formula by replacing the numerator in parentheses, on the right-hand side of the equation, with “number of fields of view in which arbuscules were seen”.
# [3] = test system: Rhizophagus clarus HR1; assay: Hyphal branching of a different AM fungus (as in Example 1); assay type: cell-based; settings: FIG. 6
# Method: Essentially the same experiments as described in Example 1 were carried out, except that a different arbuscular mycorrhizal fungus, Rhizophagus clarus HR1, was used. […] The compositions of the present disclosure can increase hyphal branching of diverse arbuscular mycorrhizal fungi included in the order Glomerales besides those exemplified here.
# [4] = test system: AM fungi colonizing chive (Allium schoenoprasum) root; assay: AM fungal colonization of host plant root in plant box: chive; assay type: in vivo
# Method: as §1
# (§4) Culturing of the host plants and AM fungal colonization and treatments with the active compounds were performed according to the following procedures. […]
# (§5) Colonization rates of the AM fungi were measured according to the following procedures. […]
# as §2
# The rate of arbuscule formation was calculated according to the above formula by replacing the numerator in parentheses, on the right-hand side of the equation, with “number of fields of view in which arbuscules were seen”. […]
# [5] = test system: common broomrape (Orobanche minor) seeds; assay: Bioassay using common broomrape seeds (germination); assay type: cell-based; settings: FIG. 5
# Source text: The seeds of the genus Orobanche and genus Striga plants, which are root-parasitic weeds, have the property to germinate in response to strigolactones released from the roots of agricultural plants which serve as hosts. These root-parasitic weeds are causing serious damage to crop production worldwide. This poses a hindrance to the external application of strigolactone as an agent for promoting arbuscular mycorrhizal fungus colonization.
# Effect of gentiopicroside (GPS) on the germination of common broomrape (Orobanche minor), a parasitic weed of the genus Orobanche, was investigated. Experiments were performed according to the following experimental procedures.
# (1) Common broomrape seeds were placed in a nylon mesh that had been shaped into a pouch (2 cm×2 cm×2 cm) by a sealer, and the opening of the pouch was closed.
# (2) The seeds, together with the pouch, were placed in a 1% sodium hypochlorite aqueous solution to sterilize the surface for 20 minutes, and then washed 3 times with sterilized water.
# (3) The pouch containing the seeds was placed on a filter paper dampened with sterilized water, and allowed to absorb water for 10 days at 25° C. in the dark.
# (4) 6 mm paper discs contained in a 96-well plate were moistened by adding 15 μL distilled water dropwise.
# (5) A new paper disc was placed on the paper disc of (4) above, and 20 μL of the test solution was added dropwise. Distilled water was used as a negative control (Mock) and 1 μM strigolactone (GR24) as a positive control. For the solvent for GPS, methanol was chosen due to its volatility.
# (6) For treating the common broomrape seeds with both GR24 and GPS, one reagent was first added dropwise, and after complete evaporation of the solvent, the other reagent was then added.
# (7) After the discs were left for 5 minutes to remove the solvent by evaporation, the common broomrape seeds of (3) above, which had been transferred to distilled water, were added together with the water as 5 μL drops.
# (8) After 5 days of culturing at 25° C. in the dark, the germination rates of the common broomrape were measured.
# [6] = test system: AM fungi colonizing tomato (Solanum lycopersicum L. cv. Sugar Lump) root; assay: AM fungal colonization of host plant root in plant box: tomato; assay type: in vivo; settings: 4 weeks, FIG. 4b
# Method: as §1, §4, §5, §2, §3
Molecule,hyphal branching activity compared with positive control GR24 [1],activity for promoting hyphal branching (hyphal branch number per spore) ([1]; FIG. 1),hyphal branching [3],hyphal branch numbers compared to the negative control [1],also measured
"C=C[C@@H]1C2=CCOC(=O)C2=CO[C@H]1O[C@@H]1O[C@H](CO)[C@@H](O)[C@H](O)[C@H]1O [GPS, Gentiopicroside]",comparable to or greater than that of GR24,significantly high activities for promoting hyphal branching,significant increases,–,"root colonization events compared to the mock treatment ([2]; 10 nM, Dunnett's test): statistically significant increase; root colonization events compared to the mock treatment ([2]; GPS treatments, FIG. 4a): increasing trend; outside-of-root hyphae of the AM fungi in the rhizosphere ([2]; GPS treatments, FIG. 4a, left): vigorously branching; AM fungal colonization rates compared with positive control gibberellin (GA) ([2]; positive control gibberellin): overall lower; AM fungal colonization rate ([4]; 1 nM (lowest concentration tested), Dunnett's test): statistically significant increase; GPS concentration giving maximum average colonization rate of the AM fungi ([4]; 4 weeks, FIG. 4c): 10 nM; germination of the common broomrape seeds ([5]; 1 to 1000 nM GPS alone, 5 days at 25° C. in the dark): did not germinate at all; germination rates of the common broomrape seeds ([5]; GPS treatment in the concurrent presence of GR24 treatment): ~100%; GPS concentration giving maximum average colonization rate of the AM fungi [6]: 100 nM"
"C=C[C@H]1[C@H](O[C@@H]2O[C@H](CO)[C@@H](O)[C@H](O)[C@H]2O)OC=C2C(=O)OCC[C@]21O [SWM, Swertiamarin]",comparable to or greater than that of GR24,significantly high activities for promoting hyphal branching,significant increases,–,–
Oleuropein,lower activities compared to GR24 and Loganin,–,–,increased the hyphal branch numbers significantly,–
COC(=O)C1=CO[C@@H](O[C@@H]2O[C@H](CO)[C@@H](O)[C@H](O)[C@H]2O)[C@@H]2C(CO)=CC[C@H]12 [Geniposide],lower activities compared to GR24 and Loganin,–,–,increased the hyphal branch numbers significantly,–
"CC1=C[C@H](O/C=C2/C(=O)O[C@@H]3c4ccccc4C[C@H]23)OC1=O (racemic) [GR24, rac-GR24, reference compound]",–,–,–,–,"hyphal branch number per spore compared to the Mock treatment ([1]; positive control, 100 nM, 7-10 days at 25° C. in the dark, FIG. 1): significant increase; hyphal branching ([3]; positive control, 100 nM): significant increases; germination rate of the common broomrape seeds ([5]; 1 μM GR24, 5 days at 25° C. in the dark): ~100%"
COC(=O)C1=CO[C@@H](O[C@@H]2O[C@H](CO)[C@@H](O)[C@H](O)[C@H]2O)[C@@H]2[C@@H](C)[C@@H](O)C[C@H]12 [Loganin],comparable to those of Gentiopicroside and Swertiamarin and the positive control GR24,–,–,had the activity for the AM fungi to promote hyphal branching,–
